Experimental data published in PMC7473772 (eLife, 2020).
“And” between values parts separate entries of the source, which are not always exact repeats. Equal values may be shown once. Read-outs that look alike come from different tables or passages of the source.

Assays:
TbAQP2/HAPT1 = TbAQP2/HAPT1 (Trypanosoma brucei brucei, UniProt Q6ZXT3); experiment: cell-based; assay type: cell-based
T. b. brucei 2T1 = experiment: Drug sensitivity assay (resazurin); assay type: cell-based; conditions: Trypanosoma brucei, 48 h drug + 24 h resazurin, read-out: EC50 control 2T1 AVG
Experimental: The tbaqp2/tbaqp3 null cells ([Baker et al., 2012]) and tbaqp1-2-3 null cells ([Jeacock et al., 2017]) (both obtained from David Horn, University of Dundee, UK) are derived from the 2T1 strain of T. b. brucei ([Alsford and Horn, 2008]). The CRK12 RNAi cell line^28 was obtained from Dr Tansy Hammarton (University of Glasgow, UK) and is also based on the 2T1 cell line; RNAi expression was induced with 1 µg/ml tetracycline in the medium. All experiments were performed with bloodstream form trypanosomes grown in vitro in HMI-11 medium as described ([Wallace et al., 2002]) at 37°C in a 5% CO2 atmosphere. Cultures were routinely maintained in 10 ml of this medium, being seeded at 5 × 10^4 cells/ml and passed to fresh medium at reaching approximately 3 × 10^6 cells/ml after 48 hr. For transport experiments 150 or 200 ml of culture was seeded at the same density in large flasks and incubated until the culture reached late-log phase.
Drug sensitivity assays for T. b. brucei bloodstream forms used the cell viability dye resazurin (Sigma) and were performed exactly as described ([Wallace et al., 2002]; [Bridges et al., 2007]) in 96-well plates with doubling dilutions of test compound, starting at 100 µM, over 2 rows of the plate (23 dilutions plus no-drug control). Incubation time with test compound was 48 hr (37°C/5% CO2), followed by an additional 24 hr in the presence of the dye.

tbaqp2/tbaqp3 null cells = experiment: microbe, parasite or virus in culture; assay type: cell-based, Trypanosoma brucei brucei; conditions: for EC50: Trypanosoma brucei
[1] = tested on: tbaqp2/tbaqp3 null cells expressing TbAQP2WT; experiment: microbe, parasite or virus in culture; assay type: cell-based, Trypanosoma brucei brucei; conditions: for EC50: Trypanosoma brucei
[2] = tested on: tbaqp2/tbaqp3 null cells expressing TbAQP2^S131P/S263A; assay type: cell-based, Trypanosoma brucei brucei
[3] = tested on: tbaqp2/tbaqp3 null cells expressing TbAQP2^L258Y; assay type: cell-based, Trypanosoma brucei brucei
[4] = tested on: tbaqp2/tbaqp3 null cells expressing TbAQP2^I110W; assay type: cell-based, Trypanosoma brucei brucei
[5] = tested on: tbaqp2/tbaqp3 null cells expressing TbAQP2^L264R; assay type: cell-based, Trypanosoma brucei brucei
[6] = tested on: tbaqp2/tbaqp3 null cells expressing TbAQP2^I110W/L264R; assay type: cell-based, Trypanosoma brucei brucei
[7] = tested on: tbaqp2/tbaqp3 null cells expressing TbAQP2 L84W; experiment: microbe, parasite or virus in culture; assay type: cell-based, Trypanosoma brucei brucei
[8] = tested on: tbaqp2/tbaqp3 null cells expressing TbAQP2 L118W; experiment: microbe, parasite or virus in culture; assay type: cell-based, Trypanosoma brucei brucei
[9] = tested on: tbaqp2/tbaqp3 null cells expressing TbAQP2 L218W; experiment: microbe, parasite or virus in culture; assay type: cell-based, Trypanosoma brucei brucei
[10] = tested on: tbaqp2/tbaqp3 null cells expressing TbAQP2 L84M; experiment: microbe, parasite or virus in culture; assay type: cell-based, Trypanosoma brucei brucei
[11] = tested on: tbaqp2/tbaqp3 null cells expressing TbAQP2 L118M; experiment: microbe, parasite or virus in culture; assay type: cell-based, Trypanosoma brucei brucei
[12] = tested on: tbaqp2/tbaqp3 null cells expressing TbAQP2 L218M; experiment: microbe, parasite or virus in culture; assay type: cell-based, Trypanosoma brucei brucei
tbaqp2 null (AQP2-KO) = experiment: Drug sensitivity assay (resazurin); assay type: cell-based; conditions: Trypanosoma brucei, read-out: EC50 AQP2-KO AVG, AQP2-KO / tbaqp2 null; 48 h drug + 24 h resazurin
[13] = tested on: TbAQP2 expressed in tbaqp2 null; experiment: Drug sensitivity assay (resazurin); assay type: cell-based; conditions: Trypanosoma brucei
[14] = Trypanosoma brucei, read-out: EC50, MEAN
[15] = Trypanosoma brucei, read-out: EC50, single repeats
[16] = Trypanosoma brucei, read-out: EC50, MEAN (nM)

Chain of TbAQP2/HAPT1 (Q6ZXT3 whole entry): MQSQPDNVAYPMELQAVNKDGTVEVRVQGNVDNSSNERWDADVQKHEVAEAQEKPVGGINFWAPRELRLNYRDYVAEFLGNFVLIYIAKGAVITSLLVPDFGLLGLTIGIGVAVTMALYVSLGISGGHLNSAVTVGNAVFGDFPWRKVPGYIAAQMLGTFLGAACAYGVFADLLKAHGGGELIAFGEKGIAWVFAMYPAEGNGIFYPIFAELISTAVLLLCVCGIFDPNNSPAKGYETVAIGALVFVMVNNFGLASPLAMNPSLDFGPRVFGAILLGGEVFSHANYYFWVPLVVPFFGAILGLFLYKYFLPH

N=C(N)c1ccc(/N=N/Nc2ccc(C(=N)N)cc2)cc1 [Diminazene]
ΔG0 (TbAQP2/HAPT1): -5.74 kcal/mol | δ(ΔG0) (TbAQP2/HAPT1): 4.45 kcal/mol | Ki (TbAQP2/HAPT1; HAPT Ki, AVG): 62500 nM | Ki (TbAQP2/HAPT1; Ki): 63000 nM | EC50 (T. b. brucei 2T1): 122 nM | EC50 (% of aqp2/aqp3 null), MEAN (tbaqp2/tbaqp3 null cells): 100.00 % of aqp2/aqp3 null | EC50, MEAN (% KO) (tbaqp2/tbaqp3 null cells): 100.00 % KO | EC50, percent of AQP2/3 null EC50 (tbaqp2/tbaqp3 null cells): 100.00% | EC50 as percent of AQP2/3 null EC50, MEAN (tbaqp2/tbaqp3 null cells): 100.00% | EC50 as percent of AQP2/3 null EC50, single repeats (tbaqp2/tbaqp3 null cells): 100% | EC50 (tbaqp2/tbaqp3 null cells; read-out: EC50, MEAN): 76 nM | EC50 (tbaqp2/tbaqp3 null cells; read-out: EC50, MEAN (nM)): 175 nM | EC50 (% of aqp2/aqp3 null), MEAN [1]: 97.55 % of aqp2/aqp3 null | EC50, MEAN (% KO) [1]: 98.90 % KO | EC50, percent of AQP2/3 null EC50 [1]: 96.75% and 102.22% and 102.99% and 78.60% | EC50 as percent of AQP2/3 null EC50, MEAN [1]: 102.99% | EC50 ([1]; read-out: EC50, MEAN): 74.2 nM | EC50 ([1]; read-out: EC50, MEAN (nM)): 149 nM | EC50, percent of AQP2/3 null EC50 [2]: 93.48% | EC50, percent of AQP2/3 null EC50 [3]: 105.69% | EC50, percent of AQP2/3 null EC50 [4]: 114.65% | EC50, percent of AQP2/3 null EC50 [5]: 99.35% | EC50 as percent of AQP2/3 null EC50, MEAN [6]: 108.15% | EC50 (% of aqp2/aqp3 null), MEAN [7]: 113.28 % of aqp2/aqp3 null | EC50 (% of aqp2/aqp3 null), single repeats [7]: 126.86 % of aqp2/aqp3 null and 125.65 % of aqp2/aqp3 null and 87.33 % of aqp2/aqp3 null | EC50 [7, 14]: 86.1 nM | EC50 [7, 15]: 96.4 nM | EC50 ([7]; read-out: EC50, single repeats): 95.5 nM and 66.4 nM | EC50 (% of aqp2/aqp3 null), MEAN [8]: 95.82 % of aqp2/aqp3 null | EC50 (% of aqp2/aqp3 null), single repeats [8]: 118.42 % of aqp2/aqp3 null and 101.85 % of aqp2/aqp3 null and 67.18 % of aqp2/aqp3 null | EC50 [8, 14]: 72.8 nM | EC50 [8, 15]: 90 nM | EC50 ([8]; read-out: EC50, single repeats): 77.4 nM and 51.1 nM | EC50 (% of aqp2/aqp3 null), MEAN [9]: 38.99 % of aqp2/aqp3 null | Sensitisation relative to tbaqp2/tbaqp3 null [9]: ~ 2 fold | EC50 [9, 14]: 29.6 nM | EC50, MEAN (% KO) [10]: 99.61 % KO | EC50 [10, 16]: 145 nM | EC50, MEAN (% KO) [11]: 93.77 % KO | EC50 [11, 16]: 177 nM | EC50, MEAN (% KO) [12]: 48.28 % KO | Sensitisation relative to tbaqp2/tbaqp3 null [12]: ~ 2 fold | EC50 [12, 16]: 54 nM | EC50 [12, 15]: 38.7 nM | EC50 ([12]; read-out: EC50, single repeats): 61.5 nM and 61.9 nM and 39.1 nM and 34.8 nM and 41.6 nM | EC50 (tbaqp2 null (AQP2-KO)): 108 nM

CC[n+]1c(-c2ccccc2)c2cc(N)ccc2c2ccc(N)cc21 [Ethidium]
ΔG0 (TbAQP2/HAPT1): -5.47 kcal/mol | δ(ΔG0) (TbAQP2/HAPT1): 4.71 kcal/mol | Ki (TbAQP2/HAPT1; Ki): 97000 nM | EC50 (T. b. brucei 2T1): 1320 nM | EC50 (tbaqp2/tbaqp3 null cells): 1380 ± 140 nM | EC50 (tbaqp2 null (AQP2-KO)): 1380 nM | EC50 [13]: 1350 ± 110 nM
